Data: ChEMBL document CHEMBL2434921, “New synthetic aliphatic sulfonamido-quaternary ammonium salts as anticancer chemotherapeutic agents” (2013)
The source made the active and inactive calls. No cut-off for these calls is given here.

Assays:
PC-3 [1] = assay: Growth of human PC3 cells at 10 uM after 48 hrs by SRB assay; details: PC-3, 48 h
PC-3 [2] = assay: Growth inhibition of human PC3 cells at 1 uM after 48 hrs by SRB assay; values are per cent of control; details: PC-3, 48 h
MDA-MB-231 [3] = assay: Growth inhibition of human MDA-MB-231 cells at 0.3 uM after 48 hrs by SRB assay; values are per cent of control; details: MDA-MB-231, 48 h
[4] = biological target: Rho-related GTP-binding protein RhoB (Homo sapiens) (UniProt P62745); assay: Transactivation of RhoB (unknown origin) transfected in human HeLa cells at 5 uM measured over 10 secs by dual luciferase reporter gene assay; type: cell-based
Chain of Rho-related GTP-binding protein RhoB (Homo sapiens) (P62745 whole entry): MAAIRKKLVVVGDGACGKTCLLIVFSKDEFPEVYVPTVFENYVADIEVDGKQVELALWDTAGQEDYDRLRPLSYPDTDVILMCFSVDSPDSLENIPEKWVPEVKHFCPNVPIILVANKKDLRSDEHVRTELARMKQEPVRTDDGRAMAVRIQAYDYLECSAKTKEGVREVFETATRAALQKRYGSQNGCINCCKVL

HCT-15 [5] = assay: Growth inhibition of human HCT15 cells at 10 uM after 48 hrs by SRB assay; values are per cent of control; details: HCT-15, 48 h
PC-3 [6] = assay: Growth inhibition of human PC3 cells at 0.3 uM after 48 hrs by SRB assay; values are per cent of control; details: PC-3, 48 h
NUGC-3 [7] = assay: Growth of human NUGC3 cells at 0.1 uM after 48 hrs by SRB assay; details: NUGC-3, 48 h
NCI-H23 [8] = assay: Growth of human NCI-H23 cells at 0.3 uM after 48 hrs by SRB assay; details: NCI-H23, 48 h
ACHN [9] = assay: Growth inhibition of human ACHN cells at 3 uM after 48 hrs by SRB assay; values are per cent of control
NUGC-3 [10] = assay: Growth inhibition of human NUGC3 cells at 10 uM after 48 hrs by SRB assay; values are per cent of control; details: NUGC-3, 48 h
NUGC-3 [11] = assay: Growth of human NUGC3 cells at 0.3 uM after 48 hrs by SRB assay; details: NUGC-3, 48 h
HCT-15 [12] = assay: Growth inhibition of human HCT15 cells at 1 uM after 48 hrs by SRB assay; values are per cent of control; details: HCT-15, 48 h
HCT-15 [13] = assay: Growth of human HCT15 cells at 3 uM after 48 hrs by SRB assay; details: HCT-15, 48 h
NCI-H23 [14] = assay: Growth inhibition of human NCI-H23 cells at 3 uM after 48 hrs by SRB assay; values are per cent of control; details: NCI-H23, 48 h
ACHN [15] = assay: Growth inhibition of human ACHN cells after 48 hrs by SRB assay; type: functional
NCI-H23 [16] = assay: Growth inhibition of human NCI-H23 cells at 1 uM after 48 hrs by SRB assay; values are per cent of control; details: NCI-H23, 48 h
NCI-H23 [17] = assay: Growth inhibition of human NCI-H23 cells after 48 hrs by SRB assay; type: functional; details: NCI-H23, 48 h
NCI-H23 [18] = assay: Growth inhibition of human NCI-H23 cells at 0.1 uM after 48 hrs by SRB assay; values are per cent of control; details: NCI-H23, 48 h
PC-3 [19] = assay: Growth inhibition of human PC3 cells after 48 hrs by SRB assay; type: functional; details: PC-3, 48 h
ACHN [20] = assay: Growth inhibition of human ACHN cells at 1 uM after 48 hrs by SRB assay; values are per cent of control
ACHN [21] = assay: Growth of human ACHN cells at 0.3 uM after 48 hrs by SRB assay
NCI-H23 [22] = assay: Growth of human NCI-H23 cells at 10 uM after 48 hrs by SRB assay; details: NCI-H23, 48 h
HCT-15 [23] = assay: Growth inhibition of human HCT15 cells at 0.1 uM after 48 hrs by SRB assay; values are per cent of control; details: HCT-15, 48 h
NUGC-3 [24] = assay: Growth of human NUGC3 cells at 1 uM after 48 hrs by SRB assay; details: NUGC-3, 48 h
MDA-MB-231 [25] = assay: Growth of human MDA-MB-231 cells at 10 uM after 48 hrs by SRB assay; details: MDA-MB-231, 48 h
NUGC-3 [26] = assay: Growth inhibition of human NUGC3 cells at 3 uM after 48 hrs by SRB assay; values are per cent of control; details: NUGC-3, 48 h
PC-3 [27] = assay: Growth inhibition of human PC3 cells at 3 uM after 48 hrs by SRB assay; values are per cent of control; details: PC-3, 48 h
NUGC-3 [28] = assay: Growth inhibition of human NUGC3 cells after 48 hrs by SRB assay; type: functional; details: NUGC-3, 48 h
ACHN [29] = assay: Growth of human ACHN cells at 0.1 uM after 48 hrs by SRB assay
MDA-MB-231 [30] = assay: Growth inhibition of human MDA-MB-231 cells after 48 hrs by SRB assay; type: functional; details: MDA-MB-231, 48 h
MDA-MB-231 [31] = assay: Growth of human MDA-MB-231 cells at 1 uM after 48 hrs by SRB assay; details: MDA-MB-231, 48 h
PC-3 [32] = assay: Growth inhibition of human PC3 cells at 0.1 uM after 48 hrs by SRB assay; values are per cent of control; details: PC-3, 48 h
MDA-MB-231 [33] = assay: Growth of human MDA-MB-231 cells at 0.1 uM after 48 hrs by SRB assay; details: MDA-MB-231, 48 h
MDA-MB-231 [34] = assay: Growth of human MDA-MB-231 cells at 3 uM after 48 hrs by SRB assay; values are per cent of control; details: MDA-MB-231, 48 h
ACHN [35] = assay: Growth of human ACHN cells at 10 uM after 48 hrs by SRB assay
HCT-15 [36] = assay: Growth inhibition of human HCT15 cells after 48 hrs by SRB assay; type: functional; details: HCT-15, 48 h
HCT-15 [37] = assay: Growth of human HCT15 cells at 0.3 uM after 48 hrs by SRB assay; details: HCT-15, 48 h

| Activity [4] | GI50 (ACHN [15]) | GI50 (NCI-H23 [17]) | GI50 (PC-3 [19]) | SMILES | growth, % of control at 10 µM (PC-3 [1]) | growth, % of control at 1 µM (PC-3 [2]) | growth, % of control at 0.3 µM (MDA-MB-231 [3]) | growth, % of control at 10 µM (HCT-15 [5]) | growth, % of control at 0.3 µM (PC-3 [6]) | growth, % of control at 0.1 µM (NUGC-3 [7]) | growth, % of control at 0.3 µM (NCI-H23 [8]) | growth, % of control at 3 µM (ACHN [9]) | growth, % of control at 10 µM (NUGC-3 [10]) | growth, % of control at 0.3 µM (NUGC-3 [11]) | growth, % of control at 1 µM (HCT-15 [12]) | growth, % of control at 3 µM (HCT-15 [13]) | growth, % of control at 3 µM (NCI-H23 [14]) | growth, % of control at 1 µM (NCI-H23 [16]) | growth, % of control at 0.1 µM (NCI-H23 [18]) | growth, % of control at 1 µM (ACHN [20]) | also measured |
| --- | --- | --- | --- | --- | --- | --- | --- | --- | --- | --- | --- | --- | --- | --- | --- | --- | --- | --- | --- | --- | --- |
| Active | 3480 nM | 890 nM | 620 nM | C=CC[N+](C)(C)CCN(C)S(=O)(=O)CCCCCCCCCCCCCCCC | -4.8% | 61.8% | 104% | 48.7% | 95.9% | 108% | 96.2% | 69.3% | 9.4% | 105% | 97.2% | 76.5% | 30.9% | 69.8% | 101% | 112% | growth, % of control at 0.3 µM (ACHN [21]): 130%; growth, % of control at 10 µM (NCI-H23 [22]): 2.5%; growth, % of control at 0.1 µM (HCT-15 [23]): 100%; growth, % of control at 1 µM (NUGC-3 [24]): 65.5%; growth, % of control at 10 µM (MDA-MB-231 [25]): 18.4%; growth, % of control at 3 µM (NUGC-3 [26]): 20.9%; growth, % of control at 3 µM (PC-3 [27]): 10.1%; GI50 (NUGC-3 [28]): 760 nM; growth, % of control at 0.1 µM (ACHN [29]): 135%; GI50 (MDA-MB-231 [30]): 1350 nM; growth, % of control at 1 µM (MDA-MB-231 [31]): 86.5%; growth, % of control at 0.1 µM (PC-3 [32]): 99.9%; growth, % of control at 0.1 µM (MDA-MB-231 [33]): 108%; growth, % of control at 3 µM (MDA-MB-231 [34]): 39.4%; growth, % of control at 10 µM (ACHN [35]): 38.6%; GI50 (HCT-15 [36]): 4730 nM; growth, % of control at 0.3 µM (HCT-15 [37]): 101% |
| Active | 1390 nM | 730 nM | 460 nM | C=CC[N+](C)(C)CCN(C)S(=O)(=O)CCCCCCCCCCCCCC | -22.9% | 48.6% | 107% | 22.6% | 83% | 91.6% | 80.4% | 45.7% | -8.4% | 97.1% | 81.8% | 49.9% | 24% | 70.8% | 78.2% | 80.3% | growth, % of control at 0.3 µM (ACHN [21]): 101%; growth, % of control at 10 µM (NCI-H23 [22]): -9.2%; growth, % of control at 0.1 µM (HCT-15 [23]): 90.5%; growth, % of control at 1 µM (NUGC-3 [24]): 73%; growth, % of control at 10 µM (MDA-MB-231 [25]): 20.2%; growth, % of control at 3 µM (NUGC-3 [26]): 19.3%; growth, % of control at 3 µM (PC-3 [27]): 8.4%; GI50 (NUGC-3 [28]): 830 nM; growth, % of control at 0.1 µM (ACHN [29]): 92.6%; GI50 (MDA-MB-231 [30]): 1800 nM; growth, % of control at 1 µM (MDA-MB-231 [31]): 99.4%; growth, % of control at 0.1 µM (PC-3 [32]): 86.7%; growth, % of control at 0.1 µM (MDA-MB-231 [33]): 88%; growth, % of control at 3 µM (MDA-MB-231 [34]): 49.7%; growth, % of control at 10 µM (ACHN [35]): -36.7%; GI50 (HCT-15 [36]): 1710 nM; growth, % of control at 0.3 µM (HCT-15 [37]): 91.6% |
| Active | 1000 nM | 910 nM | 440 nM | CCCCCCCCCCCCCCCCS(=O)(=O)N(C)CCC[N+](C)(C)C | -54.1% | 31.5% | 92.3% | 8.7% | 91% | 91.8% | 97.3% | 36.3% | -40.9% | 59.1% | 57% | 26.7% | 26.5% | 72.7% | 94.9% | 72.2% | growth, % of control at 0.3 µM (ACHN [21]): 97.6%; growth, % of control at 10 µM (NCI-H23 [22]): -10.4%; growth, % of control at 0.1 µM (HCT-15 [23]): 100%; growth, % of control at 1 µM (NUGC-3 [24]): 25%; growth, % of control at 10 µM (MDA-MB-231 [25]): 8.8%; growth, % of control at 3 µM (NUGC-3 [26]): -22.4%; growth, % of control at 3 µM (PC-3 [27]): -24.5%; GI50 (NUGC-3 [28]): 210 nM; growth, % of control at 0.1 µM (ACHN [29]): 96.7%; GI50 (MDA-MB-231 [30]): 1040 nM; growth, % of control at 1 µM (MDA-MB-231 [31]): 66.5%; growth, % of control at 0.1 µM (PC-3 [32]): 101%; growth, % of control at 0.1 µM (MDA-MB-231 [33]): 97.6%; growth, % of control at 3 µM (MDA-MB-231 [34]): 39.2%; growth, % of control at 10 µM (ACHN [35]): -31.4%; GI50 (HCT-15 [36]): 780 nM; growth, % of control at 0.3 µM (HCT-15 [37]): 104% |
